From patent US20230295229A1, “PEPTIDE SELECTIVELY BINDING TO CANCER CELL-DERIVED EXOSOME, AND USES THEREOF” (KYUNGPOOK NATIONAL UNIVERSITY INDUSTRY-ACADEMIC COOPERATION …, priority 2020, published 2023)
Primed or numbered codes have the meaning given here. No end group written: not given here. FITC′ = not defined here

Key:
[1] = test system: A549 tumor nude mouse model; test: co-administration of doxorubicin and ExoPep-KLA in the A549 tumor nude mouse model; assay type: in vivo
Description: In the A549 tumor nude mouse model, ExoPep-KLA peptide was administered three times a week at the indicated time points, and doxorubicin was administered once a week for three weeks. The timing of single and co-administration was shown in the treatment protocol (FIG. 16A).

[2] = test system: A549 tumor nude mouse model; test: anticancer effect in the A549 tumor nude mouse model; assay type: in vivo
Description: To test anticancer effect using ExoPep-KLA in the A549 tumor nude mouse model, ExoPep-KLA peptides were pre-reacted with exosomes either alone or in vitro and then systemically administered intravenously for 3 weeks at the time points indicated in the protocol, and doxorubicin was administered once a week for 3 weeks (FIG. 14A).

A549 cells [3] = test: cell viability CCK-8 assay with GW4869; assay type: cell-based, human; conditions: various concentrations, 3 hours serum-free then 24 hours
A549 cells [4] = test: internalization of exosomes and ExoPep after GW4869, immunofluorescence staining; assay type: cell-based, human; conditions: 10 μM GW4869
Description: Based on the above results, using 10 μM GW4869 inhibitor, the binding of the ExoPep peptide to the exosomes and internalization thereof were analyzed.

[5] = test system: exosome release of A549 cells; test: inhibition of exosome release, western blotting of exosome markers; assay type: cell-based, human; conditions: 10 μM compared to 2.5 and 5 μM
Description: In order to further identify the binding specificity of ExoPep to exosomes, GW4869 ([…], Sigma-Aldrich), a drug that inhibits the release of exosome out of cells, was treated to cells at various concentrations (2.5, 5, and 10 μM). Thereafter, exosomes were isolated, and electrophoresis and western blotting with antibodies against CD63, Alix, Tsg101, and calnexin (Abcam) were performed in the same manner as described in FIG. 1.

[6] = test system: A549 cell-derived exosomes; test: inhibition of exosome internalization by magnetic removal of peptide-bound exosomes; assay type: cell-based, human; conditions: exosomes pretreated with biotin-labeled peptide, then removed with magnet
Description: (§1) In order to further identify the binding specificity of the ExoPep peptide to the A549 cell-derived exosome, the exosomes were labeled with a DID fluorescent dye, reacted with the biotin-labeled ExoPep peptide, and then conjugated with biotin by reacting the labeled avidin with magnetic particles. The complex of exosomes/biotin-peptide/avidin-magnetic particles prepared by the reaction was captured and removed using a magnet, and the remaining exosomes were treated to recipient cells (FIG. 5A).

[7] = test system: exosomes derived from normal HEK293 cells / HEK293 cells; test: confocal microscopy of peptide internalization with exosomes; assay type: cell-based; conditions: same manner
Description: (§2) Media of A549, HEK293, and MDA-MB231 cells were collected, exosomes were isolated through ultracentrifugation, and exosomes were labeled with DiD fluorescence reagent (red), followed by a reaction with ExoPep peptide (FITC label, green). After the reaction, the cells were immobilized, and the nuclei were stained with DAPI (blue) to analyze with confocal microscopy. More specifically, the isolated exosomes and DiD (1:200 dilution) were reacted on a stirrer at 37° C. for 30 minutes. After adding Exoquick reagent, condition was maintained at 4° C. for 30 minutes, and then DiD-labeled exosomes were precipitated by centrifugation at 13000 rpm for 3 minutes. Thereafter, a mixture of 10 uM FITC-conjugated peptide and DiD-labeled exosomes was reacted with A549 cells at 37° C. for 1 hour. After washing three times, immobilization was performed using 2% paraformaldehyde (PFA). After washing again, cells were treated with 4′-6-diamidino-2-phenylindole (DAPI) for nucleus staining. Finally, after mounting, observation was followed using a confocal microscope (Zeiss, Oberkochen, Germany).
On the other hand, the exosomes derived from normal HEK293 cells were treated in the same manner as described above and observed under a confocal microscope (Zeiss, Oberkochen, Germany).

A549 tumor mice = test: in vivo distribution imaging of DiD-labeled exosomes with or without ExoPep; design: species or system mouse; conditions: without exosomes
Description: DiD-labeled A549 tumor mouse blood-derived exosomes and A549 cell-derived exosomes were reacted with ExoPep peptide, and image monitoring was performed for in vivo distribution. Tumor xenograft mice were prepared by subcutaneously implanting A549 cell suspension (5×10^6 cells) along with PBS into the right flank of 5-week-old female BALB/c nude mice. When the tumor size reached a volume of approximately 100-200 mm^3, the mice were anesthetized. A549 tumor mice was intravenously administered with DiD-labeled A549 tumor mouse blood-derived exosomes (mEXO) and a product obtained by reacting the exosomes (mEXO) with peptides (mEXO+ExoPep, n=3) as well as DiD-labeled A549 cell-derived exosomes (cEXO) and a product obtained by reacting the exosomes (cEXO) with peptides (cEXO+ExoPep, n=3). The inventors of the present disclosure used FITC-labeled control peptide and ExoPep (n=3) as controls. In vivo fluorescence images were analyzed using an IVIS imaging system (Caliper Life Sciences, Massachusetts, USA) at various time points (2, 4, 8, and 24 hours, respectively) after administration of DiD-labeled exosomes. In vitro fluorescence images of excised tumors and organs were collected 24 hours after administration. All major organs (liver, kidney, spleen, heart, and lung) having tumor tissues were separated, washed with PBS, and subjected to in vitro fluorescence analysis (n=3).

[8] = test system: exosomes derived from normal HEK293 cells; test: inhibition of exosome internalization by magnetic removal of peptide-bound exosomes; assay type: cell-based; conditions: exosomes pretreated with biotin-labeled peptide, then removed with magnet
Description: as §1
On the other hand, internalization of exosomes into recipient cells was not reduced by pretreatment with the control peptide (sequence: NSSSVDK) (FIG. 5B). In addition, when a similar experiment was conducted on exosomes derived from normal HEK293 cells, the internalization of exosomes into recipient cells was not inhibited by the ExoPep peptide of an example embodiment of the present disclosure as well as the control peptide (FIG. 5C).

[9] = test system: A549 cell-derived exosome / A549 cells; test: confocal microscopy of peptide internalization with exosomes; assay type: cell-based, human; conditions: 10 uM FITC-conjugated peptide, DiD-labeled exosomes, 37° C., 1 hour
Description: as §2

## COc1cccc2c1C(=O)c1c(O)c3c(c(O)c1C2=O)C[C@@](O)(C(=O)CO)C[C@@H]3O[C@H]1C[C@H](N)[C@H](O)[C@H](C)O1 [doxorubicin]
[1]; 2.5 mg/kg, compared to phosphate buffer
  size of tumor: slightly reduced
[1]; 5 mg/kg
  size of tumor: more strongly inhibited
[1]; 5 mg/kg, compared to buffer
  metastatic nodules and microscopic nodules: significantly reduced
[2]; intravenous, 3 weeks
  tumor growth: significantly inhibited
[2]; mouse, in vivo
  weight of tumor: reduced

## O=C(/C=C/c1ccc(/C=C/C(=O)Nc2ccc(C3=NCCN3)cc2)cc1)Nc1ccc(C2=NCCN2)cc1 [GW4869]
A549 cells [3]
  cytotoxicity (CCK-8): did not show toxicity even at high concentration
A549 cells [4]
  internalization of exosomes and peptides bound therewith: significantly reduced
[5]
  exosome markers such as CD63, Alix, and Tsg101: greatly reduced

## NSSSVDK (NSSSVDK-{FITC′}) [control peptide, reference compound]
[6]
  internalization of exosomes into recipient cells: not reduced
[7]
  peptide observed in cells (internalization with exosomes): not observed in the cells
A549 tumor mice
  fluorescence signal of FITC-labeled peptide itself: low signals
[8]
  internalization of exosomes into recipient cells: not inhibited
[9]
  peptide observed in cells (internalization with exosomes): not observed
